A short description of data set [1]: Stability to protease degradation in human serum. Conditions: 37°C, different periods of time up to 24 h, triplicate; for stability in human serum (percentage of intact peptide), shuttles associated to the cargo PP2A/SET, compared to the shuttle without cargo: MS (MALDI-TOF).
Protocol: We further analyzed the stability to proteases degradation of the shuttles in human serum upon incubation at 37°C for different periods of time. All the shuttles were incubated with human serum and the resistance to proteases degradation analyzed by HPLC-MS.
Figure 7 Stability of the new generated shuttles in human serum (A) The shuttles were incubated at 37°C in human serum for different periods of time and their integrity (percentage of intact peptide) was analyzed by mass spectrometry (MS). Every measurement was performed in triplicate. Standard deviation is shown. (B) The shuttles Tat, Penetatin and R8 were incubated as above and the integrity was analyzed by MS. Every measurement was performed in triplicate.
For this, the new generated bi-functional peptides (shuttles associated to the cargo PP2A/SET) were incubated with human serum for different periods of time.
Figure 9 Stability in human serum of the shuttles associated to a cargo (PP2A/SET binding site) The shuttles associated to the cargo PP2A/SET were incubated at 37°C in human serum for different periods of time and their integrity (percentage of intact peptide) was analyzed by mass spectrometry (MS). Measurements were performed in triplicate and standard deviation is shown.
Peptides were incubated at 37°C in 250 ml of human serum for different periods of time. Samples were collected and peptides degradation stopped by freezing. Peptides were extracted from samples using the Proteo Miner Protein Enrichment System (Bio-Rad). Peptide integrity (percentage of intact peptide) was analyzed by mass spectrometry (MS) using MALDI-TOF (Brucker Autoflex II) following their standard protocols. Measurements were performed in triplicate. MS data were analyzed using appropriate software (Clinprot tools, Flex analysis, Brucker).
For data set [2] the following is noted: cited from earlier work. The text has this: Electrostatic interactions between the […] in the cell membrane surface are important for the internalization. […] When tryptophan residues were replaced by leucine residues, the peptide was not internalized.
The conditions of data set [3]: cited from earlier work. The text has this: We have recently published the use of a CPP named Mut3DPT [15, 16]. […] We decided to generate new CPPs with enhanced penetration and stability, compared to the original Mut3DPT shuttle and keeping equilibrium among penetration, solubility and toxicity.
The source holds these as a separate data set.

No end group written: not given here.

The text below walks through data of paper PMC5814186, “Identification and characterization of novel enhanced cell penetrating peptides for anti-cancer cargo delivery” (Oncotarget, 2017).

`N=C(N)NCCC[C@H](NC(=O)[C@H](CCCNC(=N)N)NC(=O)[C@H](CCCNC(=N)N)NC(=O)[C@H](CCCNC(=N)N)NC(=O)[C@H](CCCNC(=N)N)NC(=O)[C@H](CCCNC(=N)N)NC(=O)[C@H](CCCNC(=N)N)NC(=O)[C@@H](N)CCCNC(=N)N)C(=O)O` [R8]: the “stability in human serum (percentage of intact peptide), shuttles without cargo” value in data set [1] (MS (MALDI-TOF; text HPLC-MS)) is “degraded by serum proteases and almost not detected by HPLC-MS upon 24 h of incubation”. Take “KKKKKWKKWKKKETVTLLVALKVRYRERIT [Mut7DPT-PP2A/SET]”: the “stability in human serum (percentage of intact peptide), shuttles associated to the cargo PP2A/SET, compared to the shuttle without cargo” value in data set [1] is “does not significantly modify the stability”. Still for that read-out and setting: the result for “KKWKKWKKWKKETVTLLVALKVRYRERIT [Mut5DPT-PP2A/SET]” reads “slightly degradation upon 24 h”; that for “RRWRRWRRWRRETVTLLVALKVRYRERIT [Mut6DPT-PP2A/SET]”, “does not significantly modify the stability”.

Regarding RRWWRRWRR [RW9, literature CPP RW9 (…)], in data set [2], the “cellular uptake / internalization” value was “good cellular uptake”. For VKKKKIKAEIKI [Mut3DPT], the “resistance to protease degradation” value in data set [3] is “favourable parameters of resistance to protease degradation”.
